# Patent US20100035941A1, “METHODS FOR INCREASING BLOOD FLOW AND/OR PROMOTING TISSUE REGENERATION” (priority 2006, published 2010)
# Where two headings read alike, the source gives them in different places.
# System: granulocyte macrophage (CFU-GM), erythroid (BFU-E), and multipotential (CFU-GEMM) progenitor cells
# Settings: mice; for Absolute Number Progenitors Per ML Blood, Methylcellulose Culture, BFU-E / Absolute Number Progenitors Per ML Blood, Methylcellulose Culture, CFU-GEMM / Absolute Number Progenitors Per ML Blood, Methylcellulose Culture, CFU-GM: 1 hour post administration; for Absolute Progenitors Per ML Blood, Methylcellulose Culture, BFU-E / Absolute Progenitors Per ML Blood, Methylcellulose Culture, CFU-GEMM / Absolute Progenitors Per ML Blood, Methylcellulose Culture, CFU-GM: single s.c. injection of 5 mg/Kg
# Procedure: Progenitors were stimulated to form colonies in vitro with the combination of 1U/ml rhu Epo, 50 ng/ml rhu SLF, 5% Vol/Vol pokeweed mitogen mouse spleen cell conditioned medium (PWMSCM), and 0.1 mM hemin. Plates were scored 7 days after incubation.
# [1] = single s.c. injection 2.5 mg/kg
smiles,measurement,setting,value
"c1cc(CN2CCCNCCNCCCNCC2)ccc1CN1CCCNCCNCCCNCC1 [AMD3100, 1,1′-[1,4-phenylene-bis(methylene)]-bis-1,4,8,11-tetraazacyclotetradecane]","Fold Change Compared to Time 0, Progenitors, Methylcellulose Culture, BFU-E",Time 2′,2.07
same,"Fold Change Compared to Time 0, Progenitors, Methylcellulose Culture, CFU-GEMM",Time 2′,1.85
same,"Fold Change Compared to Time 0, Progenitors, Methylcellulose Culture, GM",Time 2′,2.86
same,"Fold Change Compared to Time 0, Progenitors, Methylcellulose Culture, BFU-E",Time 15″,2.72
same,"Fold Change Compared to Time 0, Progenitors, Methylcellulose Culture, CFU-GEMM",Time 15″,3.51
same,"Fold Change Compared to Time 0, Progenitors, Methylcellulose Culture, GM",Time 15″,2.73
same,"Fold Change Compared to Time 0, Progenitors, Methylcellulose Culture, BFU-E",Time 30″,4.24
same,"Fold Change Compared to Time 0, Progenitors, Methylcellulose Culture, CFU-GEMM",Time 30″,4.41
same,"Fold Change Compared to Time 0, Progenitors, Methylcellulose Culture, GM",Time 30″,6.23
same,"Absolute Number Progenitors Per ML Blood, Methylcellulose Culture, BFU-E",single s.c. injection 1 mg/kg,62 Per ML Blood
same,"Absolute Number Progenitors Per ML Blood, Methylcellulose Culture, CFU-GEMM",single s.c. injection 1 mg/kg,27.1 Per ML Blood
same,"Absolute Number Progenitors Per ML Blood, Methylcellulose Culture, CFU-GM",single s.c. injection 1 mg/kg,424 Per ML Blood
same,"Absolute Number Progenitors Per ML Blood, Methylcellulose Culture, BFU-E",[1],98.9 Per ML Blood
same,"Absolute Number Progenitors Per ML Blood, Methylcellulose Culture, CFU-GEMM",[1],70.6 Per ML Blood
same,"Absolute Number Progenitors Per ML Blood, Methylcellulose Culture, CFU-GM",[1],687.6 Per ML Blood
same,"Absolute Number Progenitors Per ML Blood, Methylcellulose Culture, BFU-E",single s.c. injection 5 mg/kg,92.8 Per ML Blood
same,"Absolute Number Progenitors Per ML Blood, Methylcellulose Culture, CFU-GEMM",single s.c. injection 5 mg/kg,69.5 Per ML Blood
same,"Absolute Number Progenitors Per ML Blood, Methylcellulose Culture, CFU-GM",single s.c. injection 5 mg/kg,608.4 Per ML Blood
same,"Absolute Number Progenitors Per ML Blood, Methylcellulose Culture, BFU-E",single s.c. injection 10 mg/kg,120.5 Per ML Blood
same,"Absolute Number Progenitors Per ML Blood, Methylcellulose Culture, CFU-GEMM",single s.c. injection 10 mg/kg,79.8 Per ML Blood
same,"Absolute Number Progenitors Per ML Blood, Methylcellulose Culture, CFU-GM",single s.c. injection 10 mg/kg,825.6 Per ML Blood
same,"Absolute Progenitors Per ML Blood, Methylcellulose Culture, BFU-E",15″,134.5 Per ML Blood
same,"Absolute Progenitors Per ML Blood, Methylcellulose Culture, CFU-GEMM",15″,90.4 Per ML Blood
same,"Absolute Progenitors Per ML Blood, Methylcellulose Culture, CFU-GM",15″,791.6 Per ML Blood
same,"Absolute Progenitors Per ML Blood, Methylcellulose Culture, BFU-E",30″,209.3 Per ML Blood
same,"Absolute Progenitors Per ML Blood, Methylcellulose Culture, CFU-GEMM",30″,113.5 Per ML Blood
same,"Absolute Progenitors Per ML Blood, Methylcellulose Culture, CFU-GM",30″,1805.5 Per ML Blood
same,"Absolute Progenitors Per ML Blood, Methylcellulose Culture, BFU-E",120″,102.3 Per ML Blood
same,"Absolute Progenitors Per ML Blood, Methylcellulose Culture, CFU-GEMM",120″,47.6 Per ML Blood
same,"Absolute Progenitors Per ML Blood, Methylcellulose Culture, CFU-GM",120″,528.7 Per ML Blood
